The results in this text go back to patent publication US20240342265A1, “E PROTEIN-MUTATED WEST NILE VIRUS USED AS LIVE[…] AND ONCOLYTIC DRUG FOR CANCER THERAPY” (priority 2023, published 2024).

The structures appear in SMILES notation.

Experiment [1] relates to Neuro-2a cells (mouse-derived neuroblastoma). In words: Bilateral mouse neuroblastoma model in A/JGpt mice, right-side intratumoral injection. The experiment is classed as in vivo. The procedure: Mouse-derived neuroblastoma cells (Neuro-2a cells, 1×10^8/0.1 ml/mouse) were inoculated into the bilateral lumbar region of A/JGpt female mice (SPF grade 5-week-old). When the diameter of subcutaneous tumor nodules reached 5-6 mm (about 50-100 mm^3), mice were randomly divided into groups per the <10% of tumor volume. The DS1-M2-1 was injected intratumorally only into the right-side tumor on day one.
During the test period, the body weight of each mouse was normal. […] Since the left-side tumor is the non-administered side, it is considered that the effect of DS1-M2-1 on the left-side tumor is a result of the immunotherapy effect.

Experiment [2] relates to SH-SY5Y cells (human neuroblastoma). Description: Human neuroblastoma xenograft model in BALB/c nude mice. The format is in vivo. Conditions: Adriamycin group. The protocol: The attenuated WNV was tested for oncolytic virus activity. Under aseptic conditions, SH-SY5Y cells (4×106/0.1 ml/per mouse) were inoculated into the right flank region of SPF-grade BALB/c nude mice aged 8 to 10 weeks to establish a human neuroblastoma xenograft model. When the diameter of the subcutaneous tumor nodules reached 5˜6 mm (corresponding to a tumor volume of approximately 50 mm3˜100 mm3), the mice were randomly divided into groups ensuring that the difference in tumor volume between groups was <10%. Grouping and management information are as described in Table 4. The day of the first administration was recorded as D1.
The half-effective dose is 421 PFU.
A general note: Xenograft models place foreign cells or tissue in a host animal.

Setting [3] is: Doxorubicin-Hydro group, left tumor.
Setting [4] is: Doxorubicin-Hydro group, right tumor.

Take `COc1cccc2c1C(=O)c1c(O)c3c(c(O)c1C2=O)C[C@@](O)(C(=O)CO)C[C@@H]3O[C@H]1C[C@H](N)[C@H](O)[C@H](C)O1` [Adriamycin, doxorubicin]: in experiment [1] (setting [3]), the “Max % TGITV, L” value is listed as 84.23%; the “No. of mice with tumor completely eliminated, D 22, L” value is recorded as 3; the “No. of mice with tumor completely eliminated, No./Total, L” value is recorded as 3/10. Besides, in experiment [1] (setting [4]), the “Max % TGITV, R” value was found to be 83.25%; the “No. of mice with tumor completely eliminated, D 18, R” value is reported as 1; the “No. of mice with tumor completely eliminated, D 22, R” value is reported as 2; the “No. of mice with tumor completely eliminated, No./Total, R” value is 3/10. In experiment [2], the “% T/C” value is recorded as 37.43%, the “% TGITV” value was 63.27%, the “% TGITW” value is recorded as 53.12% and the “Tumor Volume (mm^3) Day 31” value is 468.07 ± 145.59 mm^3. In addition, in experiment [2], the “Tumor Weight” value amounted to 0.406 ± 0.157 g.
On to `CC(=O)O[C@H]1C(=O)[C@@]2(C)[C@H]([C@H](OC(=O)c3ccccc3)[C@]3(O)C[C@H](OC(=O)[C@H](O)[C@@H](NC(=O)c4ccccc4)c4ccccc4)C(C)=C1C3(C)C)[C@]1(OC(C)=O)CO[C@@H]1C[C@@H]2O` [Taxol, paclitaxel], for which, in experiment [1] (Taxol 20 mg/kg, left tumor), the “Max % TGITV, L” value is on record as 50.74% and the “No. of mice with tumor completely eliminated, No./Total, L” value was 0/4. In experiment [1] (Taxol 20 mg/kg, right tumor), the “Max % TGITV, R” value was 46.73% and the “No. of mice with tumor completely eliminated, No./Total, R” value was 0/4.
